Consider 28 molecules from US6989263B1, “Method for identifying and using compounds that inactivate HIV-1 and other retroviruses by attacking highly conserved zinc fingers in the viral nucleocapsid protein” (The United States of America as represented by the …, priority 1994, dated 2006).

“Also recorded” adds a separate entry of the source.

The target of the assay is T1, p7NC (Human immunodeficiency virus type 1 group M subtype B, UniProt P05888).
T1 construct: The NC protein of HIV-1 (MN) p7NC was expressed in E. coli; made in house; host or cells: E. coli (vector pMAL-c)
The experiment in a line: HPLC analysis of reaction products of purified p7NC with reagent. Set-up: key to Protein (HPLC): reaction products / Protein (HPLC): reaction rate: formation of non-native, intra-protein disulfide links (designated “Disulfides”); some of the reagents form adducts with the cysteine residues as well (designated “Adducts”); slow: “Slow” reactions are those in which greater than 10% of the p7NC protein remained in its native form after the 10 minute incubation with reagent; very slow: “Very slow” reactions are those in which greater than 50% of the p7NC protein remained in its native form after the 10 minute incubation with reagent; fast: “Fast” reactions result in complete transformation of the p7NC protein to non-native conformations during the 10 minute incubation period. The format is biochemical, HIV-1. Conditions: for Protein (HPLC): reaction products / Protein (HPLC): reaction rate: 63 μM p7NC, 6 reagent : 1 protein, 10 minutes. From the text:
Highly purified retroviral NC proteins can be produced by expression from vectors generated through recombinant DNA technology. These proteins when reconstituted with zinc (see, Summers, et al., Protein Science 1:563–567 (1992) for methods), provide the source of the NC proteins containing the zinc fingers that are the targets for attack by the compounds of this invention. When the zinc fingers in NC proteins react with identified compounds, the reaction produces a covalent change in the NC protein, and the modified protein can be separated from the unreacted protein by, for example, reversed phase HPLC.
Samples of p7NC and apo-p7 were reacted with varying amounts of cupric chloride and resulting products separated by HPLC. The reactions were carried out using 44.3 μM protein (p7NC or apo-p7) in 0.1 M Tris-HCl, pH 7.4, for 6 minutes at room temperature with varying concentrations of CuCl2 to achieve the indicated ratios of reactants, in a final volume of 0.7 ml. Chromatography was carried out on the resulting products at pH 2 (0.05% trifluoroacetic acid) on μBondapak™ C-18 (3.9×300 mm) at 1.0 ml/minute using an acetonitrile gradient (0–17%, 20 ml; 17–20%, 60 ml; 20–60%, 10 ml). Elution positions of unreacted protein (p7NC or apo-p7) are indicated as apo-p7.
A two-fold excess of NOBA was reacted with p7NC, and the products were separated by HPLC (FIG. 10) as described above for Cu^+2 and p7NC. Elution positions for the reactants (NOBA and unreacted p7NC) and products, reacted p7NC, NOBA, HABA and AzoxyBA are indicated and an elution profile is included in FIG. 10. NOBA and AzoxyBA were supplied by Octamer, Inc. (Mill Valley, Calif.) and used as HPLC standards.
The disulfide reagent of choice (each available from the Aldrich Chemical Company (Milwaukee, Wis.)) was incubated for 10 minutes with purified p7NC protein (63 μM) at a ratio of 6 molecules of reagent to 1 molecule of NC protein (there are 6 cysteine thiols per NC protein). The formation of non-native protein conformations was monitored by HPLC as described above. […] Generally, the inactivation proceeds by formation of non-native, intra-protein disulfide links (designated “Disulfides”), but some of the reagents form adducts with the cysteine residues as well (designated “Adducts”). “Slow” reactions are those in which greater than 10% of the p7NC protein remained in its native form after the 10 minute incubation with reagent. “Very slow” reactions are those in which greater than 50% of the p7NC protein remained in its native form after the 10 minute incubation with reagent. “Fast” reactions result in complete transformation of the p7NC protein to non-native conformations during the 10 minute incubation period.

As to `Cc1cc(SSc2cc(C)c3ccccc3n2)nc2ccccc12` [4-Methyl-2-Quinolyl Disulfide], the “Protein (HPLC): reaction products” value was “Disulfides; also recorded: Adducts” and the “Protein (HPLC): reaction rate” value is “(slow) (“Slow” reactions are those in which greater than 10% of the p7NC protein remained in its native form after the 10 minute incubation with reagent)”.
For the molecule `CC(C)OC(=S)SSC(=S)OC(C)C` [Isopropylxanthic Disulfide], the “Protein (HPLC): reaction products” value is listed as “Disulfides”.
Consider `c1ccc2nc(SSc3ccc4ccccc4n3)ccc2c1` [2-Quinolyl Disulfide], for which the “Protein (HPLC): reaction products” value is recorded as “Disulfides; also recorded: Adducts” and the “Protein (HPLC): reaction rate” value is on record as “(slow) (“Slow” reactions are those in which greater than 10% of the p7NC protein remained in its native form after the 10 minute incubation with reagent)”.
With `Cc1ccc([S+]([O-])[S+]([O-])c2ccc(C)cc2)cc1` (stereo not drawn) [p-Tolyl Disulfoxide], the “Protein (HPLC): reaction products” value was “Disulfides” and the “Protein (HPLC): reaction rate” value is “(slow) (“Slow” reactions are those in which greater than 10% of the p7NC protein remained in its native form after the 10 minute incubation with reagent)”.
The like results for `O=[N+]([O-])c1ccc(SSc2ccc([N+](=O)[O-])cc2)cc1` [4-Nitrophenyl Disulfide] were, in that order, “Disulfides; also recorded: Adducts” and “(slow) (“Slow” reactions are those in which greater than 10% of the p7NC protein remained in its native form after the 10 minute incubation with reagent)”.
Take `O=[N+]([O-])c1cccc(SSc2cccc([N+](=O)[O-])c2)c1` [3-Nitrophenyl Disulfide]: the “Protein (HPLC): reaction products” value is on record as “Disulfides”.
The same measure, in the same setting: with `CSSC(=O)c1ccccc1` [Benzoylmethyl Disulfide] the entry was “Adducts”.
For the molecule `Nc1cc(Cl)ccc1SSc1ccc(Cl)cc1N` [2-Amino-4-Chlorophenyl Disulfide], the “Protein (HPLC): reaction products” value was “Disulfides; also recorded: Adducts” and the “Protein (HPLC): reaction rate” value is given as “(fast)”.
`NC(=O)SCC(=O)NNc1ccccc1` [2-(Carbamoylthio)-Acetic Acid 2-Phenylhydrazide]: the “reaction with purified p7NC (HPLC), in words” value is “caused intra-chain disulfide formation”. Moreover, the “p7NC species in non-native conformations” value (after a 10 minute incubation) is “most”.
For `O=[N+]([O-])c1cc(SSc2ccc(Cl)c([N+](=O)[O-])c2)ccc1Cl` [4-Chloro-3-Nitrophenyl Disulfide], the “Protein (HPLC): reaction products” value was “Disulfides; also recorded: Adducts”.
Turning to `O=C(O)c1cc(SSc2ccc([N+](=O)[O-])c(C(=O)O)c2)ccc1[N+](=O)[O-]` [5,5-Dithiobis(2-Nitrobenzoic Acid)], the “Protein (HPLC): reaction products” value was “Disulfides; also recorded: Adducts” and the “Protein (HPLC): reaction rate” value is reported as “(fast)”.
The like results for `O[C@@H]1CSSC[C@H]1O` (relative stereo) [Trans-1,2-Dithiane-4,5-Diol] were, in that order, “Disulfides” and “(slow) (“Slow” reactions are those in which greater than 10% of the p7NC protein remained in its native form after the 10 minute incubation with reagent)”.
In the case of `O=[N+]([O-])c1ccc(Cl)c(SSc2cc([N+](=O)[O-])ccc2Cl)c1` [2-Chloro-5-Nitrophenyl Disulfide], the “Protein (HPLC): reaction products” value was “Disulfides”.
Turning to `O=C(O)CCSSCCC(=O)O` [3,3-Dithiodipropionic Acid], the “Protein (HPLC): reaction products” value was “Disulfides” and the “Protein (HPLC): reaction rate” value was “(slow) (“Slow” reactions are those in which greater than 10% of the p7NC protein remained in its native form after the 10 minute incubation with reagent)”.
In the case of `COc1cccc(SSc2cccc(OC)c2OC)c1OC` [2,3-Dimethoxyphenyl Disulfide], the “Protein (HPLC): reaction products” value was “Adducts”.
The same measure, in the same setting: then `CCOC(=S)SSC(=S)OCC` [O,O-Diethyl Dithiobis-(Thioformate)], with “Disulfides; also recorded: Adducts”; and `c1cc(SSc2ccncc2)ccn1` [Aldrithiol-4], with “Disulfides”.
The same measure, in the same setting: then `CC(=O)Nc1ccccc1SSc1ccccc1NC(C)=O` [2-Acetamidophenyl Disulfide], with “Disulfides; also recorded: (Adducts)”.
Regarding `Cc1ccc(SSc2ccc([N+](=O)[O-])cc2)cc1` [4-Nitrophenyl p-Tolyl Disulfide], the “Protein (HPLC): reaction products” value was “Disulfides; also recorded: Adducts” and the “Protein (HPLC): reaction rate” value is reported as “(slow) (“Slow” reactions are those in which greater than 10% of the p7NC protein remained in its native form after the 10 minute incubation with reagent)”.
The matching figures for `Nc1c(SSc2ccc3ccccc3c2N)ccc2ccccc12` [2,2-Dithiobis(1-Naphtylamine)]: “Disulfides; also recorded: Adducts” and “(fast)”.
Take `Cc1ccc(SSc2ccc([N+](=O)[O-])cc2[N+](=O)[O-])cc1` [2,4-Dinitrophenyl p-Tolyl Disulfide]: the “Protein (HPLC): reaction products” value is given as “Disulfides; also recorded: Adducts” and the “Protein (HPLC): reaction rate” value is reported as “(fast)”.
In the case of `CCN1C(=O)C=CC1=O` [NEM, N-ethylmaleimide], the “reaction with purified p7NC (HPLC), in words” value was “form adducts with the p7NC protein”.
With `CCOC(=O)Nc1ccccc1SSc1ccccc1NC(=O)OCC` [2-(Ethoxycarboxamido)phenyl Disulfide], the “Protein (HPLC): reaction products” value was “Disulfides; also recorded: Adducts”.
The same measure, in the same setting: then `CS(=O)(=O)c1ccc(SSc2ccc(S(C)(=O)=O)cc2[N+](=O)[O-])c([N+](=O)[O-])c1` [4-Methylsulfonyl-2-Nitrophenyl Disulfide], with “Disulfides”; and `Clc1cc(Cl)c(SSc2cc(Cl)c(Cl)cc2Cl)cc1Cl` [2,4,5-Trichlorophenyl Disulfide], with “Disulfides”.
Consider `Nc1ccccc1SSc1ccccc1N` [2-Aminophenyl Disulfide], for which the “Protein (HPLC): reaction products” value is reported as “Disulfides; also recorded: Adducts” and the “Protein (HPLC): reaction rate” value is recorded as “(slow) (“Slow” reactions are those in which greater than 10% of the p7NC protein remained in its native form after the 10 minute incubation with reagent)”.
`CCN(CC)CCSSCCN(CC)CC` [2-(Diethylamino)ethyl Disulfide]: the “Protein (HPLC): reaction products” value is reported as “Disulfides”.
With `CC(=O)Nc1ccc(SSc2ccc(NC(C)=O)cc2)cc1` [4-Acetamidophenyl Disulfide], the “Protein (HPLC): reaction products” value is reported as “Disulfides” and the “Protein (HPLC): reaction rate” value was “(slow) (“Slow” reactions are those in which greater than 10% of the p7NC protein remained in its native form after the 10 minute incubation with reagent)”.
